Results on one compound are retold here after US12465615B2, “Aqueous solutions containing purines and pyrimidines and uses thereof” (UCB BIOSCIENCES, INC., priority 2021, dated 2025).

Holding throughout (assay type): physicochemical
Data set [1] can be described thus: Solubility of thymidine in aqueous liquids (300 mg in 3.0 mL, stirring, HPLC). The text has this:
The solubility of thymidine was investigated wherein the dissolving liquid was water, pH 3 buffered water, and deoxycytidine containing water. The deoxycytidine employed in the solubility studies is referred to as Form A deoxycytidine, e.g. as described in U.S. Patent Publication 2021/0054014, which is incorporated herein by reference. Form A deoxycytidine is characterized by an X-ray diffraction pattern comprising peaks at 8.4, 12.9, 14.2, 16.8, 18.4, 19.4, 28.4, 30.0, and 30.6 degrees two-theta (2θ) (+/−0.2). The X-ray diffraction pattern can be recorded using CuKα1 radiation.
(§1) The procedure involved adding 300 mg of the thymidine to 3.0 mL of liquid and stirring. The three liquids were water, water wherein 50 mg/mL of deoxycytidine had already been dissolved, and water buffered at about pH 3. The pH 3 buffered water was created by adding 821 mg of anhydrous citric acid and 213 mg of sodium citrate dehydrate to a 100 mL volumetric flask and adding water to the 100 mL mark while dissolving the solids. The deoxycytidine solution was created by adding 500 mg of deoxycytidine to a 10 mL volumetric flask and filling the flask with water while dissolving the solids, yielding a pH of 8.23 and a deoxycytidine concentration of about 50 mg/mL.
(§2) The liquids were stirred and samples were withdrawn at 5 mins, 10 mins, and 24 hours. At each time period 0.7 mL of the suspension was removed and subjected to filtration through a 0.45 μm PTFE filter, and 0.3 mL of the suspension was removed and centrifuged at 10,000 rpm for 2 minutes. The filtrate from the filtration and the supernatant from the centrifugation were subjected to high performance liquid chromatography (HPLC) to determine the amount of dissolved thymidine.
Solubilities are reported in mg/mL.

Data set [2] can be described thus: pH of thymidine suspensions after stirring. How it is done: as §1, §2
The pH of the suspensions were also recorded.

Data set [3] in a line: Reconstitution of thymidine in water with differing amounts of deoxycytidine (HPLC content after 2 minutes of mixing). The following applies: 6000 mg dT in 120 mL water. As for the experimental part: The solubility of thymidine in combination with different amounts of deoxycytidine was determined using HPLC and reconstitution methods as described below.
Each 50 mg/mL stock solution was prepared by adding 120 mL of purified water to a 400 mL beaker, stirring the water at 650 rpm, and then adding the amounts of thymidine and/or deoxycytidine as listed in the Table 3 below for each sample to form mixtures.
Each mixture was stirred at 650 rpm for about 1 minute, after which the stirring was reduced to 150 rpm and maintained at 150 rpm for about 1 minute. After about 2 minutes total, the mixture was filtered through a 0.45 μm syringe filter to obtain filtered stock solutions for each sample.
0.9 mg/mL intermediate solutions of each of the above samples were prepared by adding 1.0 mL of the respective filtered stock solution into a 50 mL volumetric flask and diluting to volume with a diluent (e.g., water) and mixing.
0.09 mg/mL working solutions of each of the above samples were prepared by adding 1.0 mL of the respective intermediate solution into a 10 mL volumetric flask and diluting to volume with a diluent (e.g., water) and mixing. The resulting mixture was transferred to an HPLC vial.
Working solutions for each of the above samples were subjected to HPLC analysis utilizing the conditions and parameters below and in Table 4. The data collected from the HPLC analysis was then used to calculate percent content of thymidine dissolved for each sample after 2 minutes of mixing. • Mobile Phase A: Purified Water (degassed by sonication) • […] (degassed by sonication)
[formula] • ASample=Peak area of dC or dT in the sample solution • WStd=Weight of dC or dT reference material [mg] • PurityStd=Purity of dC or dT reference material in %/100 • VSample=Dilution of sample solution corrected with dC or dT [mL] • LCFW=Correction factor of Label Claim and fill weight/0.4825 (2000 mg/4145 mg) • AStd=Mean peak area of dC or dT in the 6 injections of Std1 at beginning • WSample=Weight of sample (mg) • VStd=Dilution of standard solution [mL]/50 mL • 100=Conversion in % Results
The dC Level is the percentage of the mass of dC relative to dT. The dT Content is the percentage of dT in solution within 2 minutes of stirring in the presence of the indicated dC level.

Setting [4] is: Water with 50 mg/mL of deoxycytidine, stirring 24 hrs.
The mark [5] stands for this setting: pH 3 buffered water, stirring 10 mins.
Setting [6] is: pH 3 buffered water, stirring 24 hrs.

Molecules are shown by their SMILES.

For the compound `Cc1cn([C@H]2C[C@H](O)[C@@H](CO)O2)c(=O)[nH]c1=O` [thymidine], the “thymidine solubility higher than the thymidine solubility in water” value in data set [1] (50 mg/mL deoxycytidine solution versus water, 5 minutes) is “about 38%”. For the same compound, the Dissolved thymidine stood at 65.62 mg/mL in data set [1] (setting [4]); 51.04 mg/mL in data set [1] (Water, stirring 24 hrs); 59.66 mg/mL in data set [1] (setting [5]); 52.04 mg/mL in data set [1] (setting [6]). Also, in data set [1] (deoxycytidine liquid versus water, 10 minutes), the “thymidine solubility higher than in water” value is “about 58%”. Moreover, the pH of suspensions in data set [2] (Water with 50 mg/mL of deoxycytidine, stirring 5 mins) stood at 7.3; in data set [2] (Water with 50 mg/mL of deoxycytidine, stirring 10 mins) it was 7.1; in data set [2] (setting [4]), 7.3; in data set [2] (Water, stirring 5 mins), 7.3; in data set [2] (Water, stirring 10 mins) it was 7.3; in data set [2] (Water, stirring 24 hrs), 7.3. Also, the pH of suspensions in data set [2] (pH 3 buffered water, stirring 5 mins) amounted to 3.2; in data set [2] (setting [5]), 3.1; in data set [2] (setting [6]) it was 3.1. Also, the “dT Content (percentage of dT in solution within 2 minutes of stirring)” value in data set [3] (dC Level 0 % (mass of dC relative to dT)) came to 89.09%; in data set [3] (dC Level 10 %), 93.39%; in data set [3] (dC Level 20 %), 92.69%; in data set [3] (dC Level 40 %), 95.68%; in data set [3] (dC Level 80 %), 96.78%; in data set [3] (dC Level 100 %) it was 95.91%.
